From PubChem BioAssay AID1259407 (Chemical Carcinogenesis Research Information System (CCRIS), 2018) come the findings set out here.

The test system of this data set is CCRIS mutagenicity, Ames/micronucleus/aberration tests. As to the kind of experiment: CCRIS mutagenicity studies.
[1] abbreviates: Test System: AMES SALMONELLA TYPHIMURIUM, Strain/Indicator: TA98, Metabolic Activation: NONE, Method: STANDARD PLATE.
[2] abbreviates: Test System: AMES SALMONELLA TYPHIMURIUM, Strain/Indicator: TA100, Metabolic Activation: NONE, Method: STANDARD PLATE.
[3] abbreviates: Test System: AMES SALMONELLA TYPHIMURIUM, Strain/Indicator: TA100, Metabolic Activation: RAT, LIVER, S-9, AROCLOR 1254, Method: STANDARD PLATE.

Activity calls are given as the source filed them. How the calls were made is not given here.

Regarding `OC(O)C(Cl)(Cl)Cl`, the mutagenic call is, setting by setting: (End Point: IN VITRO MICRONUCLEUS, Test System: HAMSTER V79 CELLS, Metabolic Activation: NONE) “active; positive”; (End Point: IN VIVO MICRONUCLEUS, Test System: BLOOD LYMPHOCYTES, Species: HUMAN, Strain/Sex: INFANTS/MALE, FEMALE, Route: ORAL) “active; positive”; (Test System: AMES SALMONELLA TYPHIMURIUM, Strain/Indicator: TA98, Metabolic Activation: HAMSTER LIVER S-9 (10%), AROCLOR 1254, Method: PREINCUBATION) “inactive; negative”; (Test System: AMES SALMONELLA TYPHIMURIUM, Strain/Indicator: TA98, Metabolic Activation: NONE, Method: PREINCUBATION) “inactive; negative”; under setting [1], “inactive; negative”; (Test System: AMES SALMONELLA TYPHIMURIUM, Strain/Indicator: TA98, Metabolic Activation: RAT LIVER S-9 (10%), AROCLOR 1254, Method: PREINCUBATION) “inactive; negative”. For the same molecule, the mutagenic call is “inactive; negative” (Test System: AMES SALMONELLA TYPHIMURIUM, Strain/Indicator: TA98, Metabolic Activation: RAT, LIVER, S-9, AROCLOR 1254, Method: STANDARD PLATE); “inactive; negative” (Test System: AMES SALMONELLA TYPHIMURIUM, Strain/Indicator: TA98, Metabolic Activation: RAT, LIVER, S-9, PHENOBARBITAL AND 5,6-BENZOFLAVONE, Method: PREINCUBATION); “active; positive” (Test System: AMES SALMONELLA TYPHIMURIUM, Strain/Indicator: TA100, Metabolic Activation: HAMSTER LIVER S-9 (10%), AROCLOR 1254, Method: PREINCUBATION); “inactive; negative” (Test System: AMES SALMONELLA TYPHIMURIUM, Strain/Indicator: TA100, Metabolic Activation: NONE, Method: FLUCTUATION TEST); “inactive; negative” under setting [2]; “active; positive” (Test System: AMES SALMONELLA TYPHIMURIUM, Strain/Indicator: TA100, Metabolic Activation: RAT LIVER S-9 (10%), AROCLOR 1254, Method: PREINCUBATION). Moreover, the mutagenic call is “active; positive” (Test System: AMES SALMONELLA TYPHIMURIUM, Strain/Indicator: TA100, Metabolic Activation: RAT, LIVER, S-9, AROCLOR 1254, Method: FLUCTUATION TEST); “inactive; negative” under setting [3]; “inactive; negative” (Test System: AMES SALMONELLA TYPHIMURIUM, Strain/Indicator: TA100, Metabolic Activation: RAT, LIVER, S-9, PHENOBARBITAL AND 5,6-BENZOFLAVONE, Method: PREINCUBATION); “inactive; negative” (Test System: AMES SALMONELLA TYPHIMURIUM, Strain/Indicator: TA1535, Metabolic Activation: HAMSTER LIVER S-9 (10%), AROCLOR 1254, Method: PREINCUBATION); “inactive; negative” (Test System: AMES SALMONELLA TYPHIMURIUM, Strain/Indicator: TA1535, Metabolic Activation: NONE, Method: PREINCUBATION); “inactive; negative” (Test System: AMES SALMONELLA TYPHIMURIUM, Strain/Indicator: TA1535, Metabolic Activation: NONE, Method: STANDARD PLATE). The mutagenic call (Test System: AMES SALMONELLA TYPHIMURIUM, Strain/Indicator: TA1535, Metabolic Activation: RAT LIVER S-9 (10%), AROCLOR 1254, Method: PREINCUBATION) was “inactive; negative”; the mutagenic call (Test System: AMES SALMONELLA TYPHIMURIUM, Strain/Indicator: TA1535, Metabolic Activation: RAT, LIVER, S-9, AROCLOR 1254, Method: STANDARD PLATE) is “inactive; negative”; the mutagenic call (Test System: AMES SALMONELLA TYPHIMURIUM, Strain/Indicator: TA1537, Metabolic Activation: HAMSTER LIVER S-9 (10%), AROCLOR 1254, Method: PREINCUBATION) was “inactive; negative”; the mutagenic call (Test System: AMES SALMONELLA TYPHIMURIUM, Strain/Indicator: TA1537, Metabolic Activation: NONE, Method: PREINCUBATION) was “inactive; negative”; the mutagenic call (Test System: AMES SALMONELLA TYPHIMURIUM, Strain/Indicator: TA1537, Metabolic Activation: NONE, Method: STANDARD PLATE) is “inactive; negative”; the mutagenic call (Test System: AMES SALMONELLA TYPHIMURIUM, Strain/Indicator: TA1537, Metabolic Activation: RAT LIVER S-9 (10%), AROCLOR 1254, Method: PREINCUBATION) was “inactive; negative”. Moreover, the mutagenic call is “inactive; negative” (Test System: AMES SALMONELLA TYPHIMURIUM, Strain/Indicator: TA1537, Metabolic Activation: RAT, LIVER, S-9, AROCLOR 1254, Method: STANDARD PLATE); “inactive; negative” (Test System: AMES SALMONELLA TYPHIMURIUM, Strain/Indicator: TA1538, Metabolic Activation: NONE, Method: STANDARD PLATE); “inactive; negative” (Test System: AMES SALMONELLA TYPHIMURIUM, Strain/Indicator: TA1538, Metabolic Activation: RAT, LIVER, S-9, AROCLOR 1254, Method: STANDARD PLATE); “active; positive” (Test System: MOUSE LYMPHOMA, Strain/Indicator: L5178Y (TK+/TK- -3.7.2C), Metabolic Activation: NONE).
In the case of `O=C1c2ccccc2-c2c1ccc1ccc3ccccc3c21`, the mutagenic call under setting [3] is “inactive; negative”.
As to `Nc1c(N=Nc2ccc([N+](=O)[O-])cc2)c(S(=O)(=O)O)cc2cc(S(=O)(=O)O)c(N=Nc3ccccc3)c(O)c12`, the mutagenic call by setting is: under setting [1], “active; positive”; (Test System: AMES SALMONELLA TYPHIMURIUM, Strain/Indicator: TA98, Metabolic Activation: RAT, LIVER, S-9, PHENOBARBITAL, Method: STANDARD PLATE) “active; positive”; under setting [2], “inactive; negative”; (Test System: AMES SALMONELLA TYPHIMURIUM, Strain/Indicator: TA100, Metabolic Activation: RAT, LIVER, S-9, PHENOBARBITAL, Method: STANDARD PLATE) “active; positive”.
